Measurements published in ChEMBL document CHEMBL1177729, “Nortriterpene lactones from the fruits of Schisandra arisanensis” (2010).

Columns and labels:
Neutrophil = assay: Antiinflammatory activity in human neutrophils assessed as inhibition of FMLP/CB-induced elastase release at 10 ug/mL; type: functional
Human alphaherpesvirus 1 = assay: Antiviral activity against HSV1 KOS infected in african green monkey Vero cells assessed as inhibition of viral plaque formation in […] cells at 100 uM after 5 days by plaque reduction assay; type: functional; conditions: Human alphaherpesvirus 1, KOS, 120 h

Row | Structure (SMILES) | inhibition at 10 µg/mL (Neutrophil) | inhibition at 100 µM (Human alphaherpesvirus 1)
1 | C[C@H]([C@H](O)[C@@H]1C[C@@H](C)C(=O)O1)[C@@H]1[C@H]2[C@]1(C)CC[C@@]13O[C@]2(O)C(=O)[C@@H]1CC[C@H]1C(C)(C)O[C@@H]2[C@@H](O)C(=O)O[C@@]21[C@H]3O | 18.5% | 
2 | C[C@H]1C(=O)[C@@]2(C)CC[C@]34C[C@]56OC(=O)C[C@@]5(O)OC(C)(C)[C@@H]6C[C@H](O)[C@H]3C(=O)[C@@]3(O[C@H]5[C@H](OC(=O)[C@]5(C)O)[C@@H]1[C@]32C)O4 [ARISANLACTONE B] | 22.2% | 25%
3 | O=c1c(-c2ccc(O)cc2)coc2cc(O)cc(O)c12 [GENISTEIN] | 51.6% | 
4 | C[C@@H]1C(=O)O[C@H]2[C@@H]1O[C@]13O[C@@]4(CC[C@]5(C)C(=O)[C@H](C)[C@H]2[C@]15C)C[C@]12OC(=O)C[C@@]1(O)OC(C)(C)[C@@H]2C[C@H](O)[C@H]4C3=O [SCHINDILACTONE E] |  | 30%
